# Test: Evaluation of solubility in xylene (visual observation)
# Assay type: physicochemical
# Conditions: stirred by magnetic stirrer 10 minutes, visually observed
row,SMILES,Solubility of a 1 wt % xylene solution
1,"COCCOCCN1CC2C3=c4c5c6c7c(cc8cc9cc%10cc%11cc%12c%13c(c4c4c5c5c7c8c7c9c%10c8c%11c%13c4c8c75)=C(C3)C%12)CC62C1CCc1ccccc1 (stereo not shown) [Fullerene derivative G, N-methoxyethoxyethyl-2-(2-phenylethyl)fulleropyrrolidine]",Dissolved
2,"COCCOCCN1CC2C3=c4c5c6c7c(cc8cc9cc%10cc%11cc%12c%13c(c4c4c5c5c7c8c7c9c%10c8c%11c%13c4c8c75)=C(C3)C%12)CC62C1c1cccc2ccccc12 (stereo not shown) [Fullerene derivative A, N-methoxyethoxyethyl-2-(1-naphthyl)fulleropyrrolidine]",Dissolved
3,"COCCOCCN1CC2C3=c4c5c6c7c(cc8cc9cc%10cc%11cc%12c%13c(c4c4c5c5c7c8c7c9c%10c8c%11c%13c4c8c75)=C(C3)C%12)CC62C1c1ccccc1 (stereo not shown) [Fullerene derivative E, N-methoxyethoxyethyl-2-phenyl-fulleropyrrolidine]",Dissolved
4,"COCCOCCN1CC2C3=c4c5c6c7c(cc8cc9cc%10cc%11cc%12c%13c(c4c4c5c5c7c8c7c9c%10c8c%11c%13c4c8c75)=C(C3)C%12)CC62C1c1ccc(F)cc1 (stereo not shown) [Fullerene derivative C, N-methoxyethoxyethyl-2-(4-fluorophenyl) fulleropyrrolidine]",Dissolved
5,COCCOCCN1CC2C3=c4c5c6c7c(cc8cc9cc%10cc%11cc%12c%13c(c4c4c5c5c7c8c7c9c%10c8c%11c%13c4c8c75)=C(C3)C%12)CC62C1c1ccc(C(F)(F)F)cc1 (stereo not shown) [Fullerene derivative F],Dissolved
6,"COCCOCCN1CC2C3=c4c5c6c7c(cc8cc9cc%10cc%11cc%12c%13c(c4c4c5c5c7c8c7c9c%10c8c%11c%13c4c8c75)=C(C3)C%12)CC62C1c1ccc(C)cc1 (stereo not shown) [Fullerene derivative D, N-methoxyethoxyethyl-2-(4-methylphenyl)fulleropyrrolidine]",Dissolved
7,"COCCOCCN1CC2C3=c4c5c6c7c(cc8cc9cc%10cc%11cc%12c%13c(c4c4c5c5c7c8c7c9c%10c8c%11c%13c4c8c75)=C(C3)C%12)CC62C1c1c(F)c(F)c(F)c(F)c1F (stereo not shown) [Fullerene derivative B, N-methoxyethoxyethyl-2-(perfluorophenyl)fulleropyrrolidine]",Dissolved

# — patent US20110001093A1, “FULLERENE DERIVATIVE” (SUMITOMO CHEMICAL COMPANY LIMITED, priority 2007, published 2011)
